How the values were obtained:
[1] = Stability in human plasma; conditions: after 4 hours, 37° C.
[2] = Stability to Phase I metabolism in rat S9 liver fraction; conditions: after 90 minutes, 37° C.
Method: (§1) Test compounds were incubated in rat and human liver S9 fraction at 37° C. up to 90 minutes in order to evaluate their stability to Phase I metabolism by hepatic enzymes. Each test compound was incubated at μM concentration (50 μM when the samples were analysed by UV/HPLC, 1 or 2 μM when the samples were analysed by LC-MS/MS) with S9 fraction (protein content 2 mg/m L) in 100 mM phosphate buffer (pH 7.4), 3.3 mM MgCl2 and 1.3 mM NADPH for 0, 10, 30, 60 and 90 minutes at 37° C. in a thermostated oscillating bath. The reaction was stopped placing samples on ice bath and adding acidified acetonitrile. After centrifugation (10 minutes at 14000 rpm) an aliquot of the supernatant was diluted with water, filtered with 0.45 μm regenerated cellulose syringe filters and injected in HPLC-UV or in LC-MS/MS. The percentage of the remaining amount at the various incubation times with respect to the initial amount were calculated.

Stability in rat plasma = conditions: after 4 hours, 37° C.
Method: In order to evaluate the stability to circulating enzymes, test compounds were incubated in human and rat plasma at 37° C. in a thermostated oscillating bath. Each test compound was incubated at μM concentration (50 μM when the samples were analysed by UV/HPLC, 1 or 2 μM when the samples were analysed by LC-MS/MS) for 0, 15, 30 minutes and 1, 2 and 4 hours. The reaction was stopped placing samples on ice bath and adding acidified acetonitrile. After centrifugation (10 minutes at 14000 rpm) an aliquot of the supernatant was diluted with water, filtered with 0.45 μm regenerated cellulose syringe filters and injected in HPLC-UV or in LC-MS/MS. The percentage of the remaining amount at the various incubation times with respect to the initial amount were calculated. The half-life in plasma was also calculated.

recombinant human HDAC1 = recombinant human HDAC1 (Homo sapiens (Human), UniProt Q13547); assay: Enzymatic screening, HDAC1 inhibition (fluorogenic FdL_G substrate); type: biochemical
Method in brief: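 Recombinant human HDAC1 inhibition was measured fluorometrically using the FLUOR DE LYS-Green (FdL_G) substrate. Compounds at 8 doses (1% DMSO final) in Tris-HCl pH 8 buffer with NaCl, Tween-20 and glycerol were preincubated in triplicate with enzyme and 1 mg/mL BSA, then given substrate. Developer I plus 2 μM TSA was added, and fluorescence read after 25 minutes in the dark.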

recombinant human HDAC6 = recombinant human HDAC6 (Homo sapiens (Human), UniProt Q9UBN7); assay: Enzymatic screening, HDAC6 inhibition (fluorogenic FdL_G substrate); type: biochemical
Method in brief: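 Enzyme was preincubated with compound (8 doses, triplicate, 1% DMSO) in 25 mM Tris-HCl pH 8, 130 mM NaCl, 0.05% Tween-20, 10% glycerol, with BSA. A FLUOR DE LYS-Green substrate was then added, and fluorescence was read after developer plus 2 μM TSA.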

[3] = Stability to Phase I metabolism in human S9 liver fraction; conditions: after 90 minutes, 37° C.
Method: as §1

Sequence of recombinant human HDAC1 (Q13547 whole entry): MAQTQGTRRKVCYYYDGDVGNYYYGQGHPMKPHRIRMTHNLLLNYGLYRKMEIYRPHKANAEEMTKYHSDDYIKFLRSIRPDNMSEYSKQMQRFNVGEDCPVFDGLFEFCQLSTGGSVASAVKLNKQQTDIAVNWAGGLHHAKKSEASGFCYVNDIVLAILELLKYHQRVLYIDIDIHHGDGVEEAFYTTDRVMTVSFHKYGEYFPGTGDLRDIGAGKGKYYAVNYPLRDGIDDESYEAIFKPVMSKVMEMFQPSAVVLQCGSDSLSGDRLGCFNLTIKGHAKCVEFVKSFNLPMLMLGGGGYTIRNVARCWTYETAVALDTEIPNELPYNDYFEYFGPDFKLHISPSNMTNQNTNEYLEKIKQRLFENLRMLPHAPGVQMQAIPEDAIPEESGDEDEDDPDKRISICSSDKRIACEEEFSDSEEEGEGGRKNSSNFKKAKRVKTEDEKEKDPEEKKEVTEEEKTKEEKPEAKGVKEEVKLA
Sequence of recombinant human HDAC6 (Q9UBN7 whole entry): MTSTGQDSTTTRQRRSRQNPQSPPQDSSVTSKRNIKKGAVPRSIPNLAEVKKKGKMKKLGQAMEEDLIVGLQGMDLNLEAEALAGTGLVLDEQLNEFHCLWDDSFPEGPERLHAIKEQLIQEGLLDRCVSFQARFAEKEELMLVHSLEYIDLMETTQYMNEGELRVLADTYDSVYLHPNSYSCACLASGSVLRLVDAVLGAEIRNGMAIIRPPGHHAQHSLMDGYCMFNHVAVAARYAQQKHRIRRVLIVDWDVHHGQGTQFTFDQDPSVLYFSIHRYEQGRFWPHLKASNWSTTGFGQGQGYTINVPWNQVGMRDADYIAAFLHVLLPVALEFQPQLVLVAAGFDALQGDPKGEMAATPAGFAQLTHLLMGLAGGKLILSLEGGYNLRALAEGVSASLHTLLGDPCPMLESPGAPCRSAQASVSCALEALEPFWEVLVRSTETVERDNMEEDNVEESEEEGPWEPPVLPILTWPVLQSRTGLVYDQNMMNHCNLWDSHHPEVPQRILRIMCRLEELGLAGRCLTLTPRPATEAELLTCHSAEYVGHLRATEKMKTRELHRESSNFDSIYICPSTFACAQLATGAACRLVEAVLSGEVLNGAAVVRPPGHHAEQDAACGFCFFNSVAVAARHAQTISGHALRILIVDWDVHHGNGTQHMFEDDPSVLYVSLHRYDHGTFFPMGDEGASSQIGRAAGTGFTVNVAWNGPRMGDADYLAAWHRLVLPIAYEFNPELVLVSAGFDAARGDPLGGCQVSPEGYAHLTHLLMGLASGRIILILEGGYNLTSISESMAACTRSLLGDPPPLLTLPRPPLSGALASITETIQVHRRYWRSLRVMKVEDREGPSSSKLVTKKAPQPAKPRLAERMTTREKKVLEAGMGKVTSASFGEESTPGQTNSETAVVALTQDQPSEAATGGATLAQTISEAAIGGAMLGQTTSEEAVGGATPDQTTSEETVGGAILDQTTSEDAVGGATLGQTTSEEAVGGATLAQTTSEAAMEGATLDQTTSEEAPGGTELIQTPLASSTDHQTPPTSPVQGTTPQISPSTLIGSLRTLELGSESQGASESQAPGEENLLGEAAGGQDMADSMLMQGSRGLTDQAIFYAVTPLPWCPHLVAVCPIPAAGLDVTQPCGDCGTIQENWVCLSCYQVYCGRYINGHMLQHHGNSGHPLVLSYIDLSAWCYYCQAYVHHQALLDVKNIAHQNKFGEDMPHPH

residual percentage in HUMAN PLASMA [1] | residual percentage in RAT S9 FRACTION [2] | residual percentage in RAT PLASMA (Stability in rat plasma) | IC50 (recombinant human HDAC1) | IC50 (recombinant human HDAC6) | residual percentage in HUMAN S9 FRACTION [3] | SMILES
89% | 79% | 78% | > 200 µM | 18 nM | 93% | FC(F)c1nnc(-c2ccc(Cn3cc(-c4ccc(NC5=NCCN5)cc4)cn3)nc2)o1 [compd. 270, N-(4-(1-((5-(5-(difluoromethyl)-1,3,4-oxadiazol-2-yl)pyridin-2-yl)methyl)-1H-pyrazol-4-yl)phenyl)-4,5-dihydro-1H-imidazol-2-amine]
74% | 97% | 64% | > 200 µM | 13 nM | 98% | O=C1Nc2ccc(-c3cn(Cc4ccc(-c5nnc(C(F)F)o5)cn4)nn3)cc2C12CCNC2 (stereo not drawn) [compound 28, 5-(1-((5-(5-(difluoromethyl)-1,3,4-oxadiazol-2-yl)pyridin-2-yl)methyl)-1H-1,2,3-triazol-4-yl)spiro[indoline-3,3′-pyrrolidin]-2-one]
90% | 78% | 83% | > 200 µM | 17 nM | 71% | CC(=O)Nc1cccc(-c2cn(Cc3ccc(-c4nnc(C(F)F)o4)cn3)nn2)c1 [compound 37, N-(3-(1-((5-(5-(difluoromethyl)-1,3,4-oxadiazol-2-yl)pyridin-2-yl)methyl)-1H-1,2,3-triazol-4-yl)phenyl)acetamide]
83% | 96% | 71% | > 200 µM | 18 nM | 100% | Nc1ccc(-c2cn(Cc3cc(F)c(-c4nnc(C(F)F)o4)cc3F)nn2)cn1 [compound 39, 5-(1-(4-(5-(difluoromethyl)-1,3,4-oxadiazol-2-yl)-2,5-difluorobenzyl)-1H-1,2,3-triazol-4-yl)pyridin-2-amine]
89% | 66% | 87% | > 200 µM | 22 nM | 95% | NC(=O)c1cccc(-c2nnn(Cc3ccc(-c4nnc(C(F)F)o4)cc3F)n2)c1 [compound 50, 3-(2-(4-(5-(difluoromethyl)-1,3,4-oxadiazol-2-yl)-2-fluorobenzyl)-2H-tetrazol-5-yl)benzamide]
77% | 91% | 78% | > 200 µM | 23 nM | 88% | COc1ncccc1-c1cn(Cc2ccc(-c3nnc(C(F)F)o3)cn2)nn1 [compound 53, 2-(difluoromethyl)-5-(6-((4-(2-methoxypyridin-3-yl)-1H-1,2,3-triazol-1-yl)methyl)pyridin-3-yl)-1,3,4-oxadiazole]
69% | 9% | 70% | > 200 µM | 28 nM | 103% | Nc1ccc(-c2nnn(Cc3ccc(-c4nnc(C(F)F)o4)cc3)n2)cn1 [compound 64, 5-(2-(4-(5-(difluoromethyl)-1,3,4-oxadiazol-2-yl)benzyl)-2H-tetrazol-5-yl)pyridin-2-amine]
94% | 35% | 76% | > 200 µM | 28 nM | 99% | Cc1ncc(-c2nnn(Cc3ccc(-c4nnc(C(F)F)o4)cc3)n2)cc1N [compound 65, 5-(2-(4-(5-(difluoromethyl)-1,3,4-oxadiazol-2-yl)benzyl)-2H-tetrazol-5-yl)-2-methylpyridin-3-amine]
74% | 39% | 74% | > 200 µM | 29 nM | 77% | Fc1cc(-c2nnc(C(F)F)o2)cc(F)c1Cn1cc(-c2cnc3cccnn23)nn1 [compound 67, 2-(3,5-difluoro-4-((4-(imidazo[1,2-b]pyridazin-3-yl)-1H-1,2,3-triazol-1-yl)methyl)phenyl)-5-(difluoromethyl)-1,3,4-oxadiazole]
79% | 83% | 79% | > 200 µM | 30 nM | 97% | O=C(c1cccc(-c2nnn(Cc3ccc(-c4nnc(C(F)F)o4)cn3)n2)c1)N1CCOCC1 [compound 69, (3-(2-((5-(5-(difluoromethyl)-1,3,4-oxadiazol-2-yl)pyridin-2-yl)methyl)-2H-tetrazol-5-yl)phenyl)(morpholino)methanone]
96% | 90% | 76% | > 200 µM | 32 nM | 85% | NC(=O)c1cccc(-c2nnn(Cc3ccc(-c4nnc(C(F)F)o4)cc3)n2)c1 [compound 75, 3-(2-(4-(5-(difluoromethyl)-1,3,4-oxadiazol-2-yl)benzyl)-2H-tetrazol-5-yl)benzamide]
74% | 89% | 73% | > 200 µM | 32 nM | 53% | NC(=O)c1cc(-c2nnn(Cc3ccc(-c4nnc(C(F)F)o4)cc3)n2)cnc1N [compound 76, 2-amino-5-(2-(4-(5-(difluoromethyl)-1,3,4-oxadiazol-2-yl)benzyl)-2H-tetrazol-5-yl)nicotinamide]
85% | 78% | 77% | > 200 µM | 33 nM | 96% | Nc1ncc(-c2nnn(Cc3ccc(-c4nnc(C(F)F)o4)cc3)n2)cn1 [compound 79, 5-(2-(4-(5-(difluoromethyl)-1,3,4-oxadiazol-2-yl)benzyl)-2H-tetrazol-5-yl)pyrimidin-2-amine]
97% | 46% | 88% | > 200 µM | 33 nM | 94% | CN1CCC(NC(=O)c2cccc(-c3nnn(Cc4ccc(-c5nnc(C(F)F)o5)cc4)n3)c2)CC1 [compound 80, 3-(2-(4-(5-(difluoromethyl)-1,3,4-oxadiazol-2-yl)benzyl)-2H-tetrazol-5-yl)-N-(1-methylpiperidin-4-yl)benzamide]
87% | 14% | 87% | > 200 µM | 33 nM | 78% | CN(C)C(=O)c1cccc(-c2nnn(Cc3ccc(-c4nnc(C(F)F)o4)cc3)n2)c1 [compound 81, 3-(2-(4-(5-(difluoromethyl)-1,3,4-oxadiazol-2-yl)benzyl)-2H-tetrazol-5-yl)-N,N-dimethylbenzamide]
80% | 62% | 60% | > 200 µM | 33 nM | 85% | Nc1ncnc2cc(-c3cn(Cc4ccc(-c5nnc(C(F)F)o5)cc4)nn3)ccc12 [compound 84, 7-(1-(4-(5-(difluoromethyl)-1,3,4-oxadiazol-2-yl)benzyl)-1H-1,2,3-triazol-4-yl)quinazolin-4-amine]
80% | 13% | 88% | > 200 µM | 34 nM | 83% | Nc1cncc(-c2nnn(Cc3ccc(-c4nnc(C(F)F)o4)cc3)n2)c1 [compound 90, 5-(2-(4-(5-(difluoromethyl)-1,3,4-oxadiazol-2-yl)benzyl)-2H-tetrazol-5-yl)pyridin-3-amine]
78% | 68% | 93% | > 200 µM | 35 nM | 74% | CCNC(=O)c1cccc(-c2nnn(Cc3ccc(-c4nnc(C(F)F)o4)cc3)n2)c1 [compound 91, 3-(2-(4-(5-(difluoromethyl)-1,3,4-oxadiazol-2-yl)benzyl)-2H-tetrazol-5-yl)-N-ethylbenzamide]
74% | 59% | 79% | > 200 µM | 36 nM | 72% | O=C(c1cccc(-c2nnn(Cc3ccc(-c4nnc(C(F)F)o4)cc3F)n2)c1)N1CCOCC1 [compound 93, (3-(2-(4-(5-(difluoromethyl)-1,3,4-oxadiazol-2-yl)-2-fluorobenzyl)-2H-tetrazol-5-yl)phenyl)(morpholino)methanone]

SMILES | residual percentage in HUMAN PLASMA [1] | residual percentage in RAT S9 FRACTION [2] | residual percentage in RAT PLASMA (Stability in rat plasma) | IC50 (recombinant human HDAC1) | IC50 (recombinant human HDAC6) | residual percentage in HUMAN S9 FRACTION [3]
O=C1Nc2ccc(-c3cn(Cc4ccc(-c5nnc(C(F)F)o5)cn4)nn3)cc2NC12CCNCC2 [compound 36] | 78% | 94% | 76% | > 200 µM | 16 nM | 89%

Reference: patent US20230286970A1, “NOVEL OXADIAZOLE-BASED SELECTIVE HDAC6 INHIBITORS” (ITALFARMACO S.P.A., priority 2020, published 2023)
